Test results: patent publication US8580794B2 (AbbVie Inc., priority 2009, dated 2013)

Target: GST-Bc1-2 (Homo sapiens, UniProt P10415)
Experiment: Time Resolved-Fluorescence Resonance Energy Transfer (TR-FRET) Bcl-2 binding assay with F-Bak peptide probe
Details: GST-Bcl-2 1 nM, F-Bak probe 100 nM, Tb-anti-GST 1 nM; '<' = below limit of detection; read-out: TR-FRET Bcl-2 Binding Ki

Sequence of GST-Bc1-2 (P10415 whole entry): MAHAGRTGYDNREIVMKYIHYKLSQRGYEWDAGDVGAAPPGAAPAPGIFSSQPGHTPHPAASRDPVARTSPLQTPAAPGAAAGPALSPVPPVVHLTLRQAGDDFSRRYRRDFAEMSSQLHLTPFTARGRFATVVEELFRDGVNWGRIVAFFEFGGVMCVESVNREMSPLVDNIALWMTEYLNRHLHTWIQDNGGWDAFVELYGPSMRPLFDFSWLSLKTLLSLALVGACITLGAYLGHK

Row | SMILES | Ki [nM]
1 | CC1(C)CCC(CN2CCN(c3ccc(C(=O)NS(=O)(=O)c4ccc(NCCCN(CC(F)(F)F)C5CC5)c([N+](=O)[O-])c4)c(Oc4cnc5[nH]ccc5c4)c3)CC2)=C(c2ccc(Cl)cc2)C1 [Example 308, 4-(4-{[2-(4-chlorophenyl)-4,4-dimethylcyclohex-1-en-1-yl]methyl}piperazin-1-yl)-N-{[4-({3-[cyclopropyl(2,2,2-trifluoroethyl)amino]propyl}amino)-3-nitrophenyl]sulfonyl}-2-(1H-pyrrolo[2,3-b]pyridin-5-yloxy)benzamide] | 0.141
2 | CC1(C)CCC(CN2CCN(c3ccc(C(=O)NS(=O)(=O)c4ccc(OCC5CCN(C6COC6)CC5)c(Cl)c4)c(Oc4cnc5[nH]ccc5c4)c3)CC2)=C(c2ccc(Cl)cc2)C1 [Example 309, N-[(3-chloro-4-{[1-(oxetan-3-yl)piperidin-4-yl]methoxy}phenyl)sulfonyl]-4-(4-{[2-(4-chlorophenyl)-4,4-dimethylcyclohex-1-en-1-yl]methyl}piperazin-1-yl)-2-(1H-pyrrolo[2,3-b]pyridin-5-yloxy)benzamide] | 0.023
3 | CC1(C)CCC(CN2CCN(c3ccc(C(=O)NS(=O)(=O)c4cc(F)c(OCC5(F)CCOCC5)c(F)c4)c(Oc4cnc5[nH]ccc5c4)c3)CC2)=C(c2ccc(Cl)cc2)C1 [Example 310, 4-(4-{[2-(4-chlorophenyl)-4,4-dimethylcyclohex-1-en-1-yl]methyl}piperazin-1-yl)-N-({3,5-difluoro-4-[(4-fluorotetrahydro-2H-pyran-4-yl)methoxy]phenyl}sulfonyl)-2-(1H-pyrrolo[2,3-b]pyridin-5-yloxy)benzamide] | 0.165
4 | CC1(C)CCC(CN2CCN(c3ccc(C(=O)NS(=O)(=O)c4ccc(NCCCN(C5CC5)C5COC5)c([N+](=O)[O-])c4)c(Oc4cnc5[nH]ccc5c4)c3)CC2)=C(c2ccc(Cl)cc2)C1 [Example 311, 4-(4-{[2-(4-chlorophenyl)-4,4-dimethylcyclohex-1-en-1-yl]methyl}piperazin-1-yl)-N-{[4-({3-[cyclopropyl(oxetan-3-yl)amino]propyl}amino)-3-nitrophenyl]sulfonyl}-2-(1H-pyrrolo[2,3-b]pyridin-5-yloxy)benzamide] | < 0.01
5 | CN1CCC[C@H]1C(=O)N1CCC(COc2ccc(S(=O)(=O)NC(=O)c3ccc(N4CCN(CC5=C(c6ccc(Cl)cc6)CC(C)(C)CC5)CC4)cc3Oc3cnc4[nH]ccc4c3)cc2Cl)CC1 [Example 312, N-[(3-chloro-4-{[1-(1-methyl-L-prolyl)piperidin-4-yl]methoxy}phenyl)sulfonyl]-4-(4-{[2-(4-chlorophenyl)-4,4-dimethylcyclohex-1-en-1-yl]methyl}piperazin-1-yl)-2-(1H-pyrrolo[2,3-b]pyridin-5-yloxy)benzamide] | < 0.01
6 | CC1(C)CCC(CN2CCN(c3ccc(C(=O)NS(=O)(=O)c4cc(F)c(F)c(OCC5(F)CCOCC5)c4)c(Oc4cnc5[nH]ccc5c4)c3)CC2)=C(c2ccc(Cl)cc2)C1 [Example 313, 4-(4-{[2-(4-chlorophenyl)-4,4-dimethylcyclohex-1-en-1-yl]methyl}piperazin-1-yl)-N-({3,4-difluoro-5-[(4-fluorotetrahydro-2H-pyran-4-yl)methoxy]phenyl}sulfonyl)-2-(1H-pyrrolo[2,3-b]pyridin-5-yloxy)benzamide] | 1.1
7 | CC1(C)CCC(CC2CCN(c3ccc(C(=O)NS(=O)(=O)c4ccc(NCC5CCOCC5)c([N+](=O)[O-])c4)c(Oc4cnc5[nH]ccc5c4)c3)CC2)=C(c2ccc(Cl)cc2)C1 [Example 315, 4-(4-{[2-(4-chlorophenyl)-4,4-dimethylcyclohex-1-en-1-yl]methyl}piperidin-1-yl)-N-({3-nitro-4-[(tetrahydro-2H-pyran-4-ylmethyl)amino]phenyl}sulfonyl)-2-(1H-pyrrolo[2,3-b]pyridin-5-yloxy)benzamide] | 0.052
8 | CC1(C)CCC(CC2CCN(c3ccc(C(=O)NS(=O)(=O)c4ccc(OCC5CCOCC5)c(Cl)c4)c(Oc4cnc5[nH]ccc5c4)c3)CC2)=C(c2ccc(Cl)cc2)C1 [Example 316, 4-(4-{[2-(4-chlorophenyl)-4,4-dimethylcyclohex-1-en-1-yl]methyl}piperidin-1-yl)-N-{[3-chloro-4-(tetrahydro-2H-pyran-4-ylmethoxy)phenyl]sulfonyl}-2-(1H-pyrrolo[2,3-b]pyridin-5-yloxy)benzamide] | 0.601
9 | COC(=O)N1CCOC(CNc2ccc(S(=O)(=O)NC(=O)c3ccc(N4CCN(CC5=C(c6ccc(Cl)cc6)CC(C)(C)CC5)CC4)cc3Oc3cnc4[nH]ccc4c3)cc2[N+](=O)[O-])C1 (stereo not shown) [Example 317, methyl 2-{[(4-{[4-(4-{[2-(4-chlorophenyl)-4,4-dimethylcyclohex-1-en-1-yl]methyl}piperazin-1-yl)-2-(1H-pyrrolo[2,3-b]pyridin-5-yloxy)benzoyl]sulfamoyl}-2-nitrophenyl)amino]methyl}morpholine-4-carboxylate] | < 0.01
10 | CCN(C)C(=O)N1CCOC(CNc2ccc(S(=O)(=O)NC(=O)c3ccc(N4CCN(CC5=C(c6ccc(Cl)cc6)CC(C)(C)CC5)CC4)cc3Oc3cnc4[nH]ccc4c3)cc2[N+](=O)[O-])C1 (stereo not shown) [Example 318, 2-{[(4-{[4-(4-{[2-(4-chlorophenyl)-4,4-dimethylcyclohex-1-en-1-yl]methyl}piperazin-1-yl)-2-(1H-pyrrolo[2,3-b]pyridin-5-yloxy)benzoyl]sulfamoyl}-2-nitrophenyl)amino]methyl}-N-ethyl-N-methylmorpholine-4-carboxamide] | < 0.01
11 | CC1(C)CCC(CN2CCN(c3ccc(C(=O)NS(=O)(=O)c4ccc(NCC5CN(S(C)(=O)=O)CCO5)c([N+](=O)[O-])c4)c(Oc4cnc5[nH]ccc5c4)c3)CC2)=C(c2ccc(Cl)cc2)C1 (stereo not shown) [Example 319, 4-(4-{[2-(4-chlorophenyl)-4,4-dimethylcyclohex-1-en-1-yl]methyl}piperazin-1-yl)-N-{[4-({[4-(methylsulfonyl)morpholin-2-yl]methyl}amino)-3-nitrophenyl]sulfonyl}-2-(1H-pyrrolo[2,3-b]pyridin-5-yloxy)benzamide] | < 0.01
12 | CC1(C)CCC(CN2CCN(c3ccc(C(=O)NS(=O)(=O)c4ccc(NCCCN(C5CCC5)C5CC5)c([N+](=O)[O-])c4)c(Oc4cnc5[nH]ccc5c4)c3)CC2)=C(c2ccc(Cl)cc2)C1 [Example 320, 4-(4-{[2-(4-chlorophenyl)-4,4-dimethylcyclohex-1-en-1-yl]methyl}piperazin-1-yl)-N-{[4-({3-[cyclobutyl(cyclopropyl)amino]propyl}amino)-3-nitrophenyl]sulfonyl}-2-(1H-pyrrolo[2,3-b]pyridin-5-yloxy)benzamide] | < 0.01
13 | O=C(NS(=O)(=O)c1ccc(NCC2CCOCC2)c([N+](=O)[O-])c1)c1ccc(N2CCN(CC3=C(c4ccc(Cl)cc4)CCC(F)(F)C3)CC2)cc1Oc1cnc2[nH]ccc2c1 [Example 321, 4-(4-{[2-(4-chlorophenyl)-5,5-difluorocyclohex-1-en-1-yl]methyl}piperazin-1-yl)-N-({3-nitro-4-[(tetrahydro-2H-pyran-4-ylmethyl)amino]phenyl}sulfonyl)-2-(1H-pyrrolo[2,3-b]pyridin-5-yloxy)benzamide] | < 0.01
